Source: publication PMC11784115, “Trypsin-instructed bioactive peptide nanodrugs with cascading transformations to improve chemotherapy against colon cancer” (Journal of Nanobiotechnology, 2025)
Like-named read-outs stand apart in the source and are kept apart here. Where a SMILES comes first, the peptide text is derived from it. The star is where a group is joined. Acetyl(2-naphthyl) = O=C(Cc1ccc2ccccc2c1)*

Legend:
rabbit red blood cells = tested on: rabbit red blood cells
Experimental: To begin with, the biocompatibility of 1-Pept/Dox NFs was explored from hematological compatibility and histocompatibility. The hemolysis ratio of 1-Pept/Dox NFs was evaluated based on rabbit red blood cells (RBCs). […] Then, the samples were first centrifuged to obtain the supernatant and measured the absorbance at 540 nm. Deionized water served as a positive group and 0.9% of the NaCl solution was utilized as a negative group. The hemolysis ratio of samples was obtained according to the hemolysis rate equation.

[1] = Minimum gelation concentration (MGC) by vial inversion; type: physicochemical; conditions: PBS, neutral pH, Tps 5 U/mL or Dox 0.1 eq where present
Experimental: The enzyme-directed assembly behavior of 1-Pept was subsequently investigated. 1-Pept was dissolved in PBS solution, and the pH was adjusted to neutral condition. The formation of 1-Pept nanofibrillar hydrogels was monitored via a vial inversion method. 1-Pept/Tps NFs were obtained after mixing Tps (5 U/mL) with 1-Pept solution. The MGC of 1-Pept NFs and 1-Pept/Tps NFs could be determined when the samples could not flow.
1-Pept (1.0 wt%) was dissolved in PBS solution and mixed with 0.1 equivalents of Dox to obtain 1-Pept/Dox NFs (1.0 wt%/0.1 eq), and the solutions were kept at 25 °C to obtain 1-Pept/Dox NFs. The MGC, CAC, microscopic morphology, CD analysis, and viscoelasticity were tested according to the above procedures. The intermolecular force between 1-Pept and Dox was examined with fluorescent spectroscopy. Simply, Dox solution (20 µg/mL) was incubated with different concentrations (125, 62.5, 31.3, 15.6, 7.81, and 3.90 µg/mL) of 1-Pept solutions, and the fluorescent spectrum of the sample was recorded at a fixed excitation wavelength of […]. Ulteriorly, the electrostatic interactions between 1-Pept and Dox were explored by adding sodium chloride solution (2 M).

HT29-xenografted tumor = experiment: In vivo antitumor efficacy, HT29 xenograft; set-up: species or system BALB/C nude mice; conditions: for percentage of Ki67-positive signals in tumor tissues: tumor tissue, day 21
Experimental: HT29 tumor-bearing mice model was developed to study the antitumor effect in vivo of 1-Pept/Dox NFs. HT29 cell suspension (100 µL, 5.0 × 10^6 cells) was mixed with an equal volume of Matrigel. Then, the mixtures were subcutaneously injected into the right back of male BALB/C nude mice (6–8 weeks, Jinan Pengyue Experimental Animal Breeding Co., Itd, China). […] (1) PBS; (2) 1-Pept NFs; […] The dosage was fixed as 13 µmol/kg for Dox moiety and 130 µmol/kg for 1-Pept. The tumor size and body weight of the mice were determined every three days. The tumor size was obtained using the equation V = L×W^2/2, where L and W denote the length and width, respectively. At the end of the day 21st, the tumor tissues were collected for HE staining to observe morphological changes in tumor cells. The actin and tubulin staining of the cell sections was also conducted to study the cytoskeleton changes after drug treatment. The Ki-67 staining was conducted to observe the proliferative status of tumor cells. Meanwhile, the signals of TUNEL and expressions of activated caspase-3 were also measured by immunohistochemical staining.

HT29 cells = type: cell-based, human
Experimental: HT29 cells were incubated in a 96-well microplate and cultured with 1-Pept/Dox NFs for 48 h. The concentrations of Dox were between 12.5 and 0.391 µM, and 1-Pept were between 125 and 3.91 µM. Then, a fixed volume of 20 µL MTT (5 mg/mL) was added to the wells for co-incubation. After 4 h, the generated formazan could be found. After dissolving in DMSO, the absorbance values were recorded at 490 nm utilizing a microplate reader (Multiskan FC). By comparing the absorbance of the samples and the controls, the cell’s survival rates were calculated. The IC50 values were obtained by Origin 8.0 software. Simultaneously, the MTT assays for NCM460, SW620, SW480, and HCT-15 were performed using the aforementioned procedures.

trypsin (Tps) = experiment: in vitro; conditions: isolated enzyme
Experimental: 1-Pept (1 mg/mL) was dissolved in PBS solution, and the pH was modulated to a neutral condition. After that, Tps (1 U/mL) was added to the solution to trigger the conversion of 1-Pept (NapFFGYKCD) into Pept (NapFFGYK). At fixed time points, 50 µL 1-Pept solution was taken out and mixed with 150 µL methanol to obtain the mixed solution. Finally, the mixed solution was analyzed with HPLC-MS to investigate the conversion rate.

[2] = In vitro release from 1-Pept/Dox NFs (HPLC), Ritger-Peppas fitting; type: physicochemical
Experimental: The in vitro drug release profile of 1-Pept/Dox NFs was conducted in a constant temperature vibrator (40 rpm, 37 °C). 1-Pept/Dox NFs (200 µL, 1.0 wt%/0.1 eq) were prepared and incubated with 200 µL PBS buffer (pH = 7.4, 6.5 and 5.5). At particular time points, 200 µL liquid supernatant was sucked out and further analyzed by HPLC. Simultaneously, 200 µL fresh PBS was added to maintain a fixed volume. Free Dox solutions were used as controls.

[3] = free Dox solution, 12-h release

SMILES | hemolysis rate (rabbit red blood cells; red cells of rabbit, 1 h, 1.0 wt%) [%] | minimum gelation concentration (MGC) [1] [wt%] | percentage of Ki67-positive signals in tumor tissues (HT29-xenografted tumor) [%] | IC50 (HT29 cells; 48 h) [µM] | metabolised at 72 h, 1 mg/mL (trypsin (Tps)) [%] | hemolysis rate (rabbit red blood cells) [%] | tumor volume growth rate on the 21st day (HT29-xenografted tumor; peritumoral s.c. injection days 1, 4, 7, 10, 13 µmol/kg Dox, 130 µmol/kg 1-Pept) | cumulative release of Dox at 12 h ([2]; free Dox solution control, PBS, 37 °C, 40 rpm, HPLC) [%] | Ritger-Peppas exponential factor n, Dox release [2, 3] | Ritger-Peppas k, Dox release [2, 3] | IC50 (HT29 cells; HT29, 48 h, MTT, read-out: IC50 value of Dox) [µM]
NCCCC[C@H](NC(=O)[C@H](Cc1ccc(O)cc1)NC(=O)CNC(=O)[C@H](Cc1ccccc1)NC(=O)[C@H](Cc1ccccc1)NC(=O)Cc1ccc2ccccc2c1)C(=O)N[C@@H](CS)C(=O)N[C@@H](CC(=O)O)C(=O)O [1-Pept, 2-Naphthylacetic acid-Phe-Phe-Gly-Tyr-Lys-Cys-Asp] ({Acetyl(2-naphthyl)}-FFGYKCD-OH) | 1.1 | 0.8 | 60 | 134 | > 90 | – | – | – | – | – | –
COc1cccc2c1C(=O)c1c(O)c3c(c(O)c1C2=O)C[C@@](O)(C(=O)CO)C[C@@H]3O[C@H]1C[C@H](N)[C@H](O)[C@H](C)O1 [Dox, Doxorubicin] | – | – | 45 | – | – | 2.8 | 3.3 | 51 | 0.35 | 0.21 | 2.8
